Measurements as given in US20040038369A1, “Airway-specific trypsin-like enzymes and method of using the same” (priority 2000, published 2004).

Assays:
Type in all cases: cell-based
PAR-2 = molecular target: T1, PAR-2 (Homo sapiens, UniProt P55085); experiment: Calcium influx in PAR-2-expressing insect cells; conditions: AST 2 units/mL; trypsin, thrombin 0.1 to 10 units/mL; SFLLRNamide, SLIGRL 10 to 100 μM
T1 construct: expressed in transfected cells; host or cells: Sf9 insect cells infected with recombinant baculovirus VL-PAR (pVL1393)
T1 sequence (P55085 26-397): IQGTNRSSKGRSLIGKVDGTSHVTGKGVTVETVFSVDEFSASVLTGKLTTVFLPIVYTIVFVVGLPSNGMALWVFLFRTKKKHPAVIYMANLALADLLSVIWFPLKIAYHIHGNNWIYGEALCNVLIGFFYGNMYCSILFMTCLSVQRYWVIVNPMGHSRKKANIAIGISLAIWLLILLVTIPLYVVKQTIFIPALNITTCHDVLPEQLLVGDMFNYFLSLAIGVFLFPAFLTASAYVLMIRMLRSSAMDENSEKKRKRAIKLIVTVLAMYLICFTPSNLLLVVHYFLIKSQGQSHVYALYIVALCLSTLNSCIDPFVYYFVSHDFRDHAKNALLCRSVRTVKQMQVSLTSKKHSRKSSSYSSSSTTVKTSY
Protocol: The above-obtained recombinant baculovirus VL-PAR for expressing the PAR was used to infect 1.0×10^7 Sf9 cells sowed on a 75 cm^2 flask at an MOI=2, and was then left and stationally cultured at 27° C. for 40 hours. After the culture, the infected cells were recovered and then subjected to a calcium influx experiment to-confirm the function of the PAR.
The recovered infected cells (about 5×10^6 cells) were once washed with HEPES-Tyrode buffer solution-Ca^2+ (−) pH 7.4, and then suspended in 5 mL of HEPES-Tyrode buffer solution (containing Fura2-AM, 1 μg/mL) to load the Fura2-AM on the cells at 27° C. for 30 minutes. The suspension was centrifuged at 800 rpm at room temperature for 5 minutes to recover the cells. The cells were twice washed with HEPES-Tyrode buffer solution-Ca^2+ (−) pH 7.4 and then resuspended in 5 mL of HEPES-Tyrode buffer solution-Ca^2+ (−) pH 7.4. The cell suspension was mixed with 5 μL of 1M CaCl2 to give a final concentration of 1 mM CaCl2, and then incubated in a shaded state at room temperature for 5 minutes. The prepared Fura2-AM-loaded infected cells were dispensed into a 96 well plate in a volume of 100 μL/well, further subjected to the dispensation of HEPES-Tyrode buffer solution-C^2+ (+) pH 7.4 in a volume of 80 μL/well, and then assayed with a Fluorescence Drug Screening System (made by Hamamatsu Photonics Co.). Namely, [intensity of 500 nm fluorescent light due to 340 nm exciting light]/[intensity of 500 nm fluorescent light due to 380 nm exciting light] (reflecting the concentration of calcium in the cells) was assayed.

[1] = system: normal human airway epithelial cells; experiment: Calcium influx in normal human airway epithelial cells; conditions: AST 2 units/mL; trypsin 10 to 100 units/mL; SFLLRNamide 100 μM
Protocol: The Ca^2+ influx due to the AST was examined with confluent normal epithelial cells adhered to three 10 cm dishes (purchased from BioWhittaker Corp.). The cells were peeled with a 10 mM EDTA/HEPES-Tyrode buffer solution for 10 minutes, recovered by a centrifugal treatment at 800 rpm at room temperature for 5 minutes, and then resuspended in 5 mL of HEPES-Tyrode buffer solution-Ca^2+ (−) pH 7.4. The recovered cells (about 1.2×10^6 cells) were suspended in 5 mL of HEPES-Tyrode buffer solution (1 μg/mL, containing Fura2-AM) to load the Fura2-AM to the cells at 37° C. for one hour. The cells were recovered by a centrifugal treatment at 800 rpm at room temperature for 5 minutes, twice washed with HEPES-Tyrode buffer solution-Ca^2+ (−) pH 7.4, and then resuspended in […] of HEPES-Tyrode buffer solution-Ca^2+ (−) pH 7.4. The cell suspension was mixed with 5 μL of 1M CaCl2 to give a final concentration of 1 mM CaCl2, and then incubated in a shaded state at room temperature for 5 minutes. The prepared Fura2-AM-loaded infected cells were dispensed into a 96 well plate in a volume of 100 μL/well, further subjected to the dispensation of HEPES-Tyrode buffer solution-Ca^2+ (+) pH 7.4 in a volume of 80 μL/well, and then assayed with Fluorescence Drug Screening System (Hamamatsu Photonics Co.). […]

BEAS-2B = experiment: Calcium influx in airway epithelial cell strain BEAS-2B; conditions: AST 2 units/mL; trypsin 10 to 100 units/mL; SFLLRNamide 100 μM
Protocol: The Ca^2+ influx due to the AST was examined with respect to an airway epithelial cell strain BEAS-2B. The confluent cells adhered to six 10 cm dishes were used. The cells were peeled with a 10 mM EDTA/HEPES-Tyrode buffer solution for 10 minutes, recovered by a centrifugal treatment at 1,500 rpm at room temperature for 5 minutes, and then resuspended in 10 mL of HEPES-Tyrode buffer solution-Ca^2+ (−) pH 7.4. The recovered cells (about 1.1×10^7 cells) were suspended in 11 mL of HEPES-Tyrode buffer solution (1 μg/mL, containing Fura2-AM) to load the Fura2-AM at 37° C. for 30 minutes. The cells were recovered by a centrifugal treatment at 1,500 rpm at room temperature for 5 minutes, twice washed with HEPES-Tyrode buffer solution-Ca^2+ (−) pH 7.4, and then resuspended in 11 mL of HEPES-Tyrode buffer solution-Ca^2+ (−) pH 7.4. The cell suspension was mixed with […] of 1M CaCl2 to give a final concentration of 1 mM CaCl2, and then incubated in a shaded state at room temperature for 5 minutes. The prepared Fura2-AM-loaded infected cells were dispensed into a 96 well plate in a volume of 100 μL/well, further subjected to the dispensation of HEPES-Tyrode buffer solution-Ca^2+ (+) pH 7.4 in a volume of 80 μL/well, and then assayed with Fluorescence Drug Screening System (Hamamatsu Photonics Co.). […]

Measured: Ca2+ influx

HAST: human airway-specific trypsin-like enzyme; propeptide moiety bound to trypsin-like protein moiety via a disulfide bond
observed: PAR-2 | [1] | BEAS-2B
